In US20250145592A1 (NICO Therapeutics, Inc., priority 2022, published 2025) one finds IC50 data, which are given here for 21 molecules.

Read-outs that look alike come from different tables or passages of the source.

This assay deals with IL-1β secretion in THP-1 cells (NLRP3). As to the kind of experiment: IL-1β secretion assay in PMA-differentiated THP-1 cells stimulated with LPS and nigericin (ELISA readout). In kind it is cell-based. As to conditions: IL-1β ELISA. The method, then:
Compounds as provided herein were tested in the following assay. Cell culture medium employed contained RPMI 1640 medium (89%), FBS (10%), Pen/Strep (1%), and 2-mercaptoethanol (0.05 mM). Freezing medium was made up of 90% FBS and 10% DMSO. THP-1 cells were removed from the liquid nitrogen and placed into a 37° C. water bath to thaw, until signs of ice dissipated. The cells were then added to 9 mL of warm cell culture medium and centrifuged for 5 minutes at 1000 rpm. The supernatant was discarded, and the cells were resuspended in new cell culture medium. THP-1 cells were then split and cultured in the cell culture medium, being passaged every 2-3 days with the cell density will be maintained between 5×10^5 and 1.5×10^6 viable cells/mL.
To freeze, cells were resuspended with fresh freezing medium, adjusting the cell density to 5×10^6 cells/mL. The cell suspension was partitioned into 1 mL aliquots per vial, and the vials were transferred to a −80° C. freezer. After one day at −80° C., the cell vials were transferred to liquid nitrogen freezer for storage.
PMA was dissolved in DMSO to make a stock solution at 5 mg/ml and stored in 10 μl aliquots at −20° C. for single use. PMA is added to normal growth medium. LPS was diluted with 1 mL of water solution to provide a 1 mg/mL stock solution and stored in 15 μl aliquots at −20° C. for single use. Nigericin is diluted in ice cold 100% ethanol to 5 mg/ml (6.7 mM) and stored in 75 μL aliquots at −20° C. for single use. Serum-free media contains RPMI 1640 medium (99%), Pen/Strep (1%), and 2-mercaptoethanol (0.05 mM). The two control conditions used to qualify and normalize test compound dose-response curves were as follows: High Control=25 ng/mL LPS, […], 0.5% DMSO, Low Control=25 ng/mL, LPS, 0.5% DMSO.
THP-1 cells were diluted to provide a suspension at a concentration of 1.0×10^6 cells/mL with the total volume of suspension required to enable the desired number of assay plates. The growth media was supplemented with PMA (5 ng/mL final concentration) and the cells were incubated at 37° C. under a humidified atmosphere of 5% CO2 for 40 h.
All media was carefully aspirated from each culture flask. The cells were washed carefully with 1×DPBS. The cells were then briefly digested with trypsin LE for 5 minutes at 23° C. and immediately resuspended in cell growth media. After resuspension, the cells were centrifuged at 1000 rpm for 3 minutes and the supernatant was discarded. The cells were resuspended in DPBS and once again centrifuged at 1000 rpm for 5 minutes. The supernatant was discarded and the cell pellet was resuspended in serum-free media supplemented with LPS (25 ng/mL final concentration) to enable the distribution of 30K THP-1 cells within 45 μL of media into each well of 384-well PDL-coated plates. The 384-well plates were then incubated at 37° C. under a humidified atmosphere of 5% CO2 for 2 h. Following this period, test compounds were dispensed by Tecan across the desired concentration range with all wells normalized to a final 0.5% DMSO concentration. The plates were then then incubated at 37° C. under a humidified atmosphere of 5% CO2 for 1 h. Following this period, 5 μL of the 5 mg/mL nigericin stock solution was added to each of the appropriate wells and plates were centrifuged at 1000 rpm for 30 seconds. The plates were the immediately reintroduced to the incubator at 37° C. under a humidified atmosphere of 5% CO2 for 2 h. After this time, 35 μL/well of supernatant was collected and transferred into v-bottom plate and centrifuged at 1000 rpm for 1 minute. These supernatant aliquots were analyzed using an IL-Iβ detection kit as described below. If needed, the test samples could be snap frozen and stored at −80° C. until analyzed.
To prepare each ELISA plate, capture antibody (mAb Mt175) was diluted with PBS to a final concentration of […] and then 20 µL of this solution was added to each well of the ELISA plate.
Each plate was allowed to incubate overnight at 4° C. […]

The mark [1] stands for this setting: Homo sapiens, THP-1, Table 3, LPS 25 ng/mL + nigericin, read-out: Activity (IC50 class).
[2] abbreviates: Homo sapiens, THP-1, Table 4, LPS 25 ng/mL + nigericin, read-out: Activity (IC50).
The mark [3] stands for this setting: Table 3, LPS 25 ng/mL + nigericin, read-out: Activity (IC50 class).
Where [4] appears, read: Table 4, LPS 25 ng/mL + nigericin, read-out: Activity (IC50).

With `O=C(Cn1nc(OC2CC3CC[C@@H]2C3)c2cc(Br)ccc2c1=O)Nc1ncc(F)cn1` (some centres unmarked) [Example 46, 2-[4-[[(1r,2r,4s)-2-bicyclo[2.2.1]heptanyl]oxy]-6-bromo-1-oxophthalazin-2-y1]-N-(5-fluoropyrimidin-2-yl)acetamide], the IC50 is, setting by setting: under setting [1], less than 1000 nM; under setting [2], 862 nM. For the molecule `O=C(Cn1nc(OC2CC3(C2)CC3(F)F)c2cc(Br)ccc2c1=O)Nc1ncc(F)cn1` (single isomer, unassigned) [Example 6, 2-[6-bromo-4-(2,2-difluorospiro[2.3]hexan-5-yl)oxy-1-oxophthalazin-2-yl]-N-(5-fluoropyrimidin-2-yl)acetamide], the IC50 by setting is: under setting [3], less than 1000 nM; under setting [4], 308 nM. In the case of `O=C(Cn1nc(OC2CC2)c2cc(Br)ccc2c1=O)Nc1nc2ccccn2n1` [Example 27, 2-(6-bromo-4-cyclopropyloxy-1-oxophthalazin-2-yl)-N-([1,2,4]triazolo[1,5-a]pyridin-2-yl)acetamide], the IC50 was less than 1000 nM under setting [1] and 235 nM under setting [2]. With `O=C(Cn1nc(OC2CC3(C2)CC3(F)F)c2cc(C3(F)CC3)ccc2c1=O)Nc1ncc(F)cn1` (single isomer, unassigned) [Example 14, 2-[4-(2,2-difluorospiro[2.3]hexan-5-yl)oxy-6-(1-fluorocyclopropyl)-1-oxophthalazin-2-yl]-N-(5-fluoropyrimidin-2-yl)acetamide], the IC50 runs as follows: under setting [3], less than 1000 nM; under setting [4], 314 nM. `O=C(Cn1nc(OC2C[C@H]2F)c2cc(Br)ccc2c1=O)Nc1ncc(F)cn1` (stereo partly drawn) [Example 54, 2-[6-bromo-4-[2-cis-fluorocyclopropyl]oxy-1-oxophthalazin-2-yl]-N-(5-fluoropyrimidin-2-yl)acetamide]: the IC50 under setting [2] was found to be 490 nM.

Take `COc1nn(CC(=O)Nc2ncc(F)cn2)c(=O)c2ccc(C3(F)CC3)cc12` [Example 11, 2-[6-(1-fluorocyclopropyl)-4-methoxy-1-oxophthalazin-2-yl]-N-(5-fluoropyrimidin-2-yl)acetamide]: the IC50 runs as follows: under setting [1], less than 1000 nM; under setting [2], 136 nM.

With `O=C(Cn1nc(OCC2CC2)c2cc(Br)ccc2c1=O)Nc1ncc(F)cn1` [Example 50, 2-[6-bromo-4-(cyclopropylmethoxy)-1-oxophthalazin-2-yl]-N-(5-fluoropyrimidin-2-yl)acetamide], the IC50 reads like this: under setting [1], less than 1000 nM; under setting [2], 343 nM. Take `O=C(Cn1nc(OCC(F)F)c2cc(Br)ccc2c1=O)Nc1ncc(F)cn1` [Example 48, 2-[6-bromo-4-(2,2-difluoroethoxy)-1-oxophthalazin-2-yl]-N-(5-fluoropyrimidin-2-yl)acetamide]: the IC50 is, setting by setting: under setting [1], less than 1000 nM; under setting [2], 568 nM. Taken in the same sequence, the figures for `O=C(Cn1nc(O[C@H]2C[C@H](F)C2)c2cc(Br)ccc2c1=O)Nc1ncc(F)cn1` [Example 45, 2-[6-bromo-4-(trans-3-fluorocyclobutyl)oxy-1-oxophthalazin-2-yl]-N-(5-fluoropyrimidin-2-yl)acetamide] were less than 1000 nM and 912 nM. Taken in the same sequence, the figures for `Cc1cnc(NC(=O)Cn2nc(OC3CC4(CC4)C3)c3cc(Br)ccc3c2=O)nc1` [Example 29, 2-(6-bromo-1-oxo-4-spiro[2.3]hexan-5-yloxyphthalazin-2-yl)-N-(5-methylpyrimidin-2-yl)acetamide] were less than 1000 nM and 26 nM.

On to `O=C(Cn1nc(OC2CC2(F)F)c2cc(Br)ccc2c1=O)Nc1ncc(F)cn1` (single isomer, unassigned) [Example 18, 2-[6-bromo-4-[2,2-difluorocyclopropyl]oxy-1-oxophthalazin-2-yl]-N-(5-fluoropyrimidin-2-yl)acetamide], for which the IC50 was 1000 to 10000 nM under setting [3] and 1510 nM under setting [4]. As to `O=C(Cn1nc(OC2CC3(CC3)C2)c2cc(Br)ccc2c1=O)Nc1ncc(Cl)cn1` [Example 41, 2-(6-bromo-1-oxo-4-spiro[2.3]hexan-5-yloxyphthalazin-2-yl)-N-(5-chloropyrimidin-2-yl)acetamide], the half-inhibitory concentration (IC50) is less than 1000 nM under setting [1] and 52 nM under setting [2]. The matching figures for `C[C@@H]1CC1Oc1nn(CC(=O)Nc2ncc(F)cn2)c(=O)c2ccc(Br)cc12` (stereo in doubt) [Example 52, 2-[6-bromo-4-[cis-2-methylcyclopropyl]oxy-1-oxophthalazin-2-yl]-N-(5-fluoropyrimidin-2-yl)acetamide]: less than 1000 nM and 924 nM. Take `C[C@@H]1CC1Oc1nn(CC(=O)N[C@H]2C[C@@](C)(O)C2)c(=O)c2ccc(Br)cc12` (single isomer, unassigned) [Example 8, 2-[6-bromo-4-[trans-2-methylcyclopropyl]oxy-1-oxophthalazin-2-yl]-N-(cis-3-hydroxy-3-methylcyclobutyl)acetamide]: the concentration for half-maximal inhibition (IC50) was less than 1000 nM under setting [3] and 728 nM under setting [4]. Take `O=C(Cn1nc(OC2CC3(C2)CC(F)(F)C3)c2cc(C3(F)CC3)ccc2c1=O)Nc1ncc(F)cn1` [Example 15, 2-[4-(2,2-difluorospiro[3.3]heptan-6-yl)oxy-6-(1-fluorocyclopropyl)-1-oxophthalazin-2-yl]-N-(5-fluoropyrimidin-2-yl)acetamide]: the IC50 under setting [1] was less than 1000 nM and the IC50 under setting [2] was 19 nM. Taken in the same sequence, the figures for `N#Cc1cnc(NC(=O)Cn2nc(OC3CC4(CC4)C3)c3cc(Br)ccc3c2=O)nc1` [Example 30, 2-(6-bromo-1-oxo-4-spiro[2.3]hexan-5-yloxyphthalazin-2-yl)-N-(5-cyanopyrimidin-2-yl)acetamide] were less than 1000 nM and 50 nM.

In the case of `O=C(Cn1nc(OC2CC3(C2)CC3(F)F)c2cc(Br)ccc2c1=O)Nc1ncc(F)cn1` (single isomer, unassigned) [Example 5, 2-[6-bromo-4-(2,2-difluorospiro[2.3]hexan-5-yl)oxy-1-oxophthalazin-2-yl]-N-(5-fluoropyrimidin-2-yl)acetamide], the IC50 reads like this: under setting [1], less than 1000 nM; under setting [4], 21 nM. With `C[C@]1(O)C[C@@H](NC(=O)Cn2nc(OC3CC3)c3cc(Br)ccc3c2=O)C1` [Example 23, 2-(6-bromo-4-cyclopropyloxy-1-oxophthalazin-2-yl)-N-(cis-3-hydroxy-3-methylcyclobutyl)acetamide], the half-inhibitory concentration (IC50) is less than 1000 nM under setting [1] and 312 nM under setting [2].

`C[C@@H]1CC1Oc1nn(CC(=O)Nc2ncc(F)cn2)c(=O)c2ccc(Br)cc12` (single isomer, unassigned) [Example 3, 2-[6-bromo-4-[2-trans-methylcyclopropyl]oxy-1-oxophthalazin-2-yl]-N-(5-fluoropyrimidin-2-yl)acetamide]: the IC50 is, setting by setting: under setting [3], less than 1000 nM; under setting [4], 35 nM. In the case of `O=C(Cn1nc(OC2CC3(C2)CC3(F)F)c2cc(Br)ccc2c1=O)Nc1nc2ccccn2n1` (single isomer, unassigned) [Example 25, 2-[6-bromo-4-(2,2-difluorospiro[2.3]hexan-5-yl)oxy-1-oxophthalazin-2-yl]-N-([1,2,4]triazolo[1,5-a]pyridin-2-yl)acetamide], the IC50 was less than 1000 nM under setting [1] and 33 nM under setting [4].

As to `O=C(Cn1nc(OC2CC2)c2cc(I)ccc2c1=O)Nc1ncc(F)cn1` [Example 28, 2-(4-cyclopropyloxy-6-iodo-1-oxophthalazin-2-yl)-N-(5-fluoropyrimidin-2-yl)acetamide], the IC50 by setting is: under setting [1], less than 1000 nM; under setting [2], 21 nM.
